# Reference: patent publication US20030154507A1, “Synthetic herbicide resistance gene” (priority 2001, published 2003)
# Tests used:
# [1] = test system: Coker 312 (not transgenic) regenerated from somatic embryos; experiment: Spray of 2,4-D sens control seedlings, visual damage evaluation; assay type: in vivo, cotton; conditions: 45 plants, 1/2 lb/acre acid equivalents at 24 days, evaluated after 10-14 days
# Source text: (§1) To verify that the inserted synthetic SAD genes were inheritable and to gain an indication of the number of gene insertions, seeds from the seven fertile SAD transgenic cotton plants were planted into hydroponic rock wool slabs (Hummert, St. Louis, Mo.) that had been saturated with Peters Professional water-soluble fertilizer (5-11-26 HYDRO-SOL, supplemented with calcium nitrate and magnesium sulfate to provide a complete nutrient compliment; Hummert, St. Louis, Mo.). The hydroponic rock wool slabs were placed on benches in a greenhouse, and nutrients were maintained at optimal levels using a non-recycling hydroponic watering system. Plants were grown under greenhouse conditions (28° C.±5° C. air temperature) for 24 days. At this point, the plants were removed to a spray hood, sprayed with 2,4-D amine at the normal field rate of 1/2 lb/acre acid equivalents, maintained in the hood for 24 hours to allow the 2,4-D to volatilize, and then placed back in the greenhouse.
# (§2) The negative control of Coker 312 that had been regenerated from tissue culture did show some signs of resistance, so these ratios are not to be considered as definitive measures of Mendelian inheritance of the SAD gene.
# [2] = test system: transgenic cotton plants containing the SAD2 gene (Coker 312); experiment: Greenhouse spray of PCR-positive SAD2 transformed cotton plants with 2,4-D amine; assay type: in vivo; conditions: of 95 plants; 1 lb/acre acid equivalents (twice normal field rate); sprayed at squaring stage or later
# Source text: The two binary vectors containing the SAD2 gene, pPZP211-PNPT-311-SAD2 and pPZP211-PNPT-512-SAD2, were individually introduced into the EHA 105 strain of Agrobacterium tumefaciens (Hood et al., Transgenic Research, 2:208-218 (1993)) by direct transformation as described by Walker-Peach and Velten, in Plant Molecular Biology Manual, section B1:1-19 (Gelvin, Shilperoort and Verma, eds., Kluwer Academic Publishers, Dordrecht, The Netherlands, 1994)). The constructs were subsequently introduced by Agrobacterium transfection into cotyledon explants from the cotton variety Coker 312 (Coker Seed Inc.). This was achieved by isolating sterile cotyledon tissue (derived from seedlings grown in culture from surface-sterilized seed as described by Trolinder and Gooden, Plant Cell Reports, 6:231-234 (1987)), generating explants (by use of a sterile hole punch), and submerging the explants in a 48-hour-old culture of EHA 105, containing the appropriate construct, grown at 28° C. […]
# A total of 111 kanamycin-resistant cotton seedlings were generated (44 were generated in the pPZP211-PNPT-311-SAD2 transformations, and 67 in the pPZP211-PNPT-512-SAD2 transformations). Each plant was analyzed for the presence of the SAD synthetic coding sequence and the NPTII coding sequence by PCR to ensure the integrity of the inserted DNA. […]
# [3] = test system: transgenic 2,4-D resistant cotton containing the naturally-occurring tfdA gene construct; experiment: Spray of 2,4-D res control seedlings, visual damage evaluation; assay type: in vivo; conditions: 55 plants, 1/2 lb/acre acid equivalents at 24 days, evaluated after 10-14 days
# Source text: as §1, §2
# [4] = test system: negative controls (cotton); experiment: Respray event, negative controls; assay type: in vivo; conditions: all negative controls; 1/2 lb/acre acid equivalents
# Protocol: (§3) Each plant tested positive for the SAD construct by PCR. These plants were grown for a further 14 days and then resprayed with 2,4-D amine at the normal field rate of 1/2 lb/acre acid equivalents. […] The 35 plants were grown to maturity, and seeds were collected.
# [5] = test system: SAD transgenic cotton plants; experiment: Respray of undamaged SAD plants with 2,4-D amine; assay type: in vivo; conditions: all 35 plants (5 from each of 7 SAD lines); resprayed at 1/2 lb/acre acid equivalents 14 days after first evaluation
# Protocol: as §3
# [6] = test system: SAD transgenic cotton plants; experiment: Spray of seedlings from fertile SAD transgenic cotton lines, visual damage evaluation; assay type: in vivo; conditions: 1/2 lb/acre acid equivalents at 24 days, evaluated after 10-14 days
# Source text: as §1, §2
# plants = conditions: in vivo; cited from earlier work
smiles,measurement,setting,value
"CNC.O=C(O)COc1ccc(Cl)cc1Cl [2,4-D amine]",No Damage (number of plants),[1],0
same,Severe damage (number of plants),[1],25
same,Some symptoms (number of plants),[1],20
same,plants that survived treatment with little or no herbicide damage,[2],22
same,No Damage (number of plants),[3],7
same,Severe damage (number of plants),[3],15
same,Some symptoms (number of plants),[3],33
same,survival following respray,[4],did not survive
same,damage following respray,[5],no damage
same,No Damage (number of plants),"[6]; line 311-22-1-4, 43 plants",16
same,Severe damage (number of plants),"[6]; line 311-22-1-4, 43 plants",11
same,Some symptoms (number of plants),"[6]; line 311-22-1-4, 43 plants",16
same,No Damage (number of plants),"[6]; line 311-22-1-5, 47 plants",6
same,Severe damage (number of plants),"[6]; line 311-22-1-5, 47 plants",23
same,Some symptoms (number of plants),"[6]; line 311-22-1-5, 47 plants",18
same,No Damage (number of plants),"[6]; line 311-22-1-8, 56 plants",14
same,Severe damage (number of plants),"[6]; line 311-22-1-8, 56 plants",14
same,Some symptoms (number of plants),"[6]; line 311-22-1-8, 56 plants",28
same,No Damage (number of plants),"[6]; line 512-21-1-5, 56 plants",8
same,Severe damage (number of plants),"[6]; line 512-21-1-5, 56 plants",14
same,Some symptoms (number of plants),"[6]; line 512-21-1-5, 56 plants",34
same,No Damage (number of plants),"[6]; line 512-21-4-3, 30 plants",7
same,Severe damage (number of plants),"[6]; line 512-21-4-3, 30 plants",3
same,Some symptoms (number of plants),"[6]; line 512-21-4-3, 30 plants",20
same,No Damage (number of plants),"[6]; line 512-21-4-5, 41 plants",5
same,Severe damage (number of plants),"[6]; line 512-21-4-5, 41 plants",12
same,Some symptoms (number of plants),"[6]; line 512-21-4-5, 41 plants",24
same,No Damage (number of plants),"[6]; line 512-24-4-4, 63 plants",7
same,Severe damage (number of plants),"[6]; line 512-24-4-4, 63 plants",35
same,Some symptoms (number of plants),"[6]; line 512-24-4-4, 63 plants",21
"Oc1ccc(Cl)cc1Cl [DCP, 2,4-dichlorophenol]","toxicity to plants relative to 2,4-D",plants,"much less toxic to plants than 2,4-D"
